Laboratory results: patent publication US20260183295A1, “METHODS AND COMPOSITIONS FOR TREATING CANCER” (Onconova Therapeutics, Inc., priority 2022, published 2026)

Assays:
Assay in all cases: CETSA-MS, MDA-MB-231 intact cells
Assay type in all cases: cell-based
Details in all cases: 2 μM and 20 μM
WTAP = molecular target: T1, WTAP (Homo sapiens, UniProt Q15007)
T1 construct: endogenous in cells; host or cells: MDA-MB-231
Method: (§1) TNBC MDA-MB-231 cells were grown at 37° C. in 5% CO2 and suspended in warm media and split into 4 equal volumes. […] Cells were incubated and then pelleted. Following pelleting, the cells were washed, resuspended, and heated in a thermal gradient. Following heating, the samples were flash frozen and lysed in lysis buffer, agitated by vortex, and sonicated prior to centrifugation. The supernatant was collected and denaturation buffer added. Cold acetone was then added to the cell samples, and protein collected by centrifugation. Pellets were then washed twice with cold acetone and the washed pellets prior to labeling.
(§2) The intact cell protein samples and lysate protein samples were then digested and labeled for mass spectrometry analysis according to the manufacturer's recommended protocols. Digested and labeled protein samples were analyzed by mass spectrometry proteomic analysis and the resulting protein targets were analyzed and plotted.

ANP32B = molecular target: T2, ANP32B (Homo sapiens, UniProt Q92688)
T2 construct: endogenous in cells; host or cells: MDA-MB-231
T2 sequence (Q92688 whole entry): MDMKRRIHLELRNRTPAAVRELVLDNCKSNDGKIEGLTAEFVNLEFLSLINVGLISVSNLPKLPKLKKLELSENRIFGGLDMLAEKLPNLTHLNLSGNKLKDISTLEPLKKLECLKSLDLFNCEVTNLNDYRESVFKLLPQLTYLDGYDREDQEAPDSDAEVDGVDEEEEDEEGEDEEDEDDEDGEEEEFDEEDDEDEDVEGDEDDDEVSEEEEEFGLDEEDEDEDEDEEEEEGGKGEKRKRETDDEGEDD
Method: as §1, §2

AGRN = molecular target: T3, AGRN (Homo sapiens, UniProt O00468)
T3 construct: endogenous in cells; host or cells: MDA-MB-231
Method: as §1, §2

CAVIN1 = molecular target: T4, CAVIN1 (Homo sapiens, UniProt Q6NZI2)
T4 construct: endogenous in cells; host or cells: MDA-MB-231
Method: as §1, §2

LRPPRC = molecular target: T5, LRPPRC (Homo sapiens, UniProt P42704)
T5 construct: endogenous in cells; host or cells: MDA-MB-231
Method: as §1, §2

BOD1L1 = molecular target: T6, BOD1L1 (Homo sapiens, UniProt Q8NFC6)
T6 construct: endogenous in cells; host or cells: MDA-MB-231
Method: as §1, §2

PHF8 = molecular target: T7, PHF8 (Homo sapiens, UniProt Q9UPP1)
T7 construct: endogenous in cells; host or cells: MDA-MB-231
T7 sequence (Q9UPP1 whole entry): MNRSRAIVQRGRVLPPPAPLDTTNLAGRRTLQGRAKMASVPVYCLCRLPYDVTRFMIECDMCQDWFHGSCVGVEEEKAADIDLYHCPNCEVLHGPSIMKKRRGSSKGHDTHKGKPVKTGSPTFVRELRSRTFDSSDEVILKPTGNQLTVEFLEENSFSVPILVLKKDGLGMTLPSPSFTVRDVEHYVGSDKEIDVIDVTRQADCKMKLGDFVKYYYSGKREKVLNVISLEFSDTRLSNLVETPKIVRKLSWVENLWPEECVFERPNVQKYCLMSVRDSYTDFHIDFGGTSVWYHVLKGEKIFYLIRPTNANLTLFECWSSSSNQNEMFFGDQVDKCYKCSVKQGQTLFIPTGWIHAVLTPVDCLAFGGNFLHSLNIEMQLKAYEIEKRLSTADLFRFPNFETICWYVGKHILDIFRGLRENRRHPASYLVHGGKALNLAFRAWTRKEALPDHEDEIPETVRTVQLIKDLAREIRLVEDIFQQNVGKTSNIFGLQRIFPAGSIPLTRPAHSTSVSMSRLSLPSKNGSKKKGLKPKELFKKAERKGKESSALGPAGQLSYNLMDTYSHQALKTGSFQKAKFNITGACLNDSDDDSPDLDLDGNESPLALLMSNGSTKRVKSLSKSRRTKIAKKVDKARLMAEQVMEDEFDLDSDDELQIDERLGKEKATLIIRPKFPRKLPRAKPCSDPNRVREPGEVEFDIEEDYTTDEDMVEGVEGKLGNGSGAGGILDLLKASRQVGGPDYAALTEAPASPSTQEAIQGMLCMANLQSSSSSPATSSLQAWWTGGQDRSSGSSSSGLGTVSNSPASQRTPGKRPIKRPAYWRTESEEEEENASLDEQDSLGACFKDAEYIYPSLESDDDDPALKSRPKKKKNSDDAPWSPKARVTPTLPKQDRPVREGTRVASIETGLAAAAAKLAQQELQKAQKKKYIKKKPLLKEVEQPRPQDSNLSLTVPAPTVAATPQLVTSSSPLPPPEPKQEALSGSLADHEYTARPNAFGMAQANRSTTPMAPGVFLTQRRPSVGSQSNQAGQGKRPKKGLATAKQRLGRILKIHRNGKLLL
Method: as §1, §2

STX5 = molecular target: T8, STX5 (Homo sapiens, UniProt Q13190)
T8 construct: endogenous in cells; host or cells: MDA-MB-231
T8 sequence (Q13190 whole entry): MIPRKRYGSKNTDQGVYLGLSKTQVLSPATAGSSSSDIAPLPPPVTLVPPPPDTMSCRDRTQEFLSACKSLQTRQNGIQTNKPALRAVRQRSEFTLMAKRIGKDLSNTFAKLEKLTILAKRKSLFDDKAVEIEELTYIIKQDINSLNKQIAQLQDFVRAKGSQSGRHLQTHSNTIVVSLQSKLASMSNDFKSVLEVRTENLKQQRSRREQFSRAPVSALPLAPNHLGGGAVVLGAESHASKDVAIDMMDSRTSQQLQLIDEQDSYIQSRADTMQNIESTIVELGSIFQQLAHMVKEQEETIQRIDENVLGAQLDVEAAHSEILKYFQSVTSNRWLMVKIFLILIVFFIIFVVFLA
Method: as §1, §2

AIFM2 = molecular target: T9, AIFM2 (Homo sapiens, UniProt Q9BRQ8)
T9 construct: endogenous in cells; host or cells: MDA-MB-231
Method: as §1, §2

HNRNPU = system: HNRNPU
Method: as §1, §2

AP2S1 = molecular target: T10, AP2S1 (Homo sapiens, UniProt P53680)
T10 construct: endogenous in cells; host or cells: MDA-MB-231
Method: as §1, §2

LRCH4 = molecular target: T11, LRCH4 (Homo sapiens, UniProt O75427)
T11 construct: endogenous in cells; host or cells: MDA-MB-231
Method: as §1, §2

YES1 = molecular target: T12, YES1 (Homo sapiens, UniProt P07947)
T12 construct: endogenous in cells; host or cells: MDA-MB-231
Method: as §1, §2

ZFR = molecular target: T13, ZFR (Homo sapiens, UniProt Q96KR1)
T13 construct: endogenous in cells; host or cells: MDA-MB-231
Method: as §1, §2

SHCBP1 = molecular target: T14, SHCBP1 (Homo sapiens, UniProt Q8NEM2)
T14 construct: endogenous in cells; host or cells: MDA-MB-231
Method: as §1, §2

MARK2 = molecular target: T15, MARK2 (Homo sapiens, UniProt Q7KZI7)
T15 construct: endogenous in cells; host or cells: MDA-MB-231
T15 sequence (Q7KZI7 whole entry): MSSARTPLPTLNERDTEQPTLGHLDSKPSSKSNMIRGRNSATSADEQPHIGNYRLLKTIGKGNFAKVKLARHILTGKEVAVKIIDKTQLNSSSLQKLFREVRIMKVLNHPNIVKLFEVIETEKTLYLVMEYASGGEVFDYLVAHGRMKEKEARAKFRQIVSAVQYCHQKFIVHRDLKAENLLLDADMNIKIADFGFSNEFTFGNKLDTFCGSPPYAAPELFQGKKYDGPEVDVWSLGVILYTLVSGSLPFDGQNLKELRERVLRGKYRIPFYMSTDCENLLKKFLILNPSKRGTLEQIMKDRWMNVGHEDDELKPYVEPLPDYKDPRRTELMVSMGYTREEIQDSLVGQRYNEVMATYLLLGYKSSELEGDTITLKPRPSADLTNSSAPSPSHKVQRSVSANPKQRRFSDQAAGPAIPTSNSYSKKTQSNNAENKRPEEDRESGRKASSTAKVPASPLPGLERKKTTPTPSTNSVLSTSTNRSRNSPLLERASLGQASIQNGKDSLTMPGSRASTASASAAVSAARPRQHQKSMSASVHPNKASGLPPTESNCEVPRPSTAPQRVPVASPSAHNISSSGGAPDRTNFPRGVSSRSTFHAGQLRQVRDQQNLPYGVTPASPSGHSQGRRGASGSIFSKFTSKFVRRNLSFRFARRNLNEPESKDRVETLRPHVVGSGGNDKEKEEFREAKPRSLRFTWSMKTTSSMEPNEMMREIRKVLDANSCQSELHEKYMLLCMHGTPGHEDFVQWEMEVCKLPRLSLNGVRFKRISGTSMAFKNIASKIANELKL
Method: as §1, §2

PIK3C3 = molecular target: T16, PIK3C3 (Homo sapiens, UniProt Q8NEB9)
T16 construct: endogenous in cells; host or cells: MDA-MB-231
Method: as §1, §2

HNRNPA1 = molecular target: T17, HNRNPA1 (Homo sapiens, UniProt P09651)
T17 construct: 148 targets unique to Compound 1 in MDA-MB-231 intact cells; endogenous in cells; host or cells: MDA-MB-231
T17 sequence (P09651 whole entry): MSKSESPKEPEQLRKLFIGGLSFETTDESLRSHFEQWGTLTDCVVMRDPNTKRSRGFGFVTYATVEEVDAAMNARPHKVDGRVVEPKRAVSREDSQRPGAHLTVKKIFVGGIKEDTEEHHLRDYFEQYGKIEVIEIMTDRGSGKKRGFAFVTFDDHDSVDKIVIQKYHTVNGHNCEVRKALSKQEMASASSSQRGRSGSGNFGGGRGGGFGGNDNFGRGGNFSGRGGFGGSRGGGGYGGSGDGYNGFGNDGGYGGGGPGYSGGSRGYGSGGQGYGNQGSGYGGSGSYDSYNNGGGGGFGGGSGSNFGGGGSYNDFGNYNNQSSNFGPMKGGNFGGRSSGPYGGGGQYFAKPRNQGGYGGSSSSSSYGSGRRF
Method: as §1, §2

MAP2K5 = molecular target: T18, MAP2K5 (Homo sapiens, UniProt Q13163)
T18 construct: endogenous in cells; host or cells: MDA-MB-231
Method: as §1, §2

SYNE2 = molecular target: T19, SYNE2 (Homo sapiens, UniProt Q8WXH0)
T19 construct: endogenous in cells; host or cells: MDA-MB-231
Method: as §1, §2

CST3 = molecular target: T20, CST3 (Homo sapiens, UniProt P01034)
T20 construct: 148 targets unique to Compound 1 in MDA-MB-231 intact cells; endogenous in cells; host or cells: MDA-MB-231
T20 sequence (P01034 27-146): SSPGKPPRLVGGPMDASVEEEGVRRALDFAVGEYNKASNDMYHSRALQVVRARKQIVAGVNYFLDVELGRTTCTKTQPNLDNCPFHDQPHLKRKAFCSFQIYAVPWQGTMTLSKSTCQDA
Method: as §1, §2

SNX30 = molecular target: T21, SNX30 (Homo sapiens, UniProt Q5VWJ9)
T21 construct: endogenous in cells; host or cells: MDA-MB-231
Method: as §1, §2

CDC5L = molecular target: T22, CDC5L (Homo sapiens, UniProt Q99459)
T22 construct: endogenous in cells; host or cells: MDA-MB-231
Method: as §1, §2

SNX6 = molecular target: T23, SNX6 (Homo sapiens, UniProt Q9UNH7)
T23 construct: endogenous in cells; host or cells: MDA-MB-231
T23 sequence (Q9UNH7 whole entry): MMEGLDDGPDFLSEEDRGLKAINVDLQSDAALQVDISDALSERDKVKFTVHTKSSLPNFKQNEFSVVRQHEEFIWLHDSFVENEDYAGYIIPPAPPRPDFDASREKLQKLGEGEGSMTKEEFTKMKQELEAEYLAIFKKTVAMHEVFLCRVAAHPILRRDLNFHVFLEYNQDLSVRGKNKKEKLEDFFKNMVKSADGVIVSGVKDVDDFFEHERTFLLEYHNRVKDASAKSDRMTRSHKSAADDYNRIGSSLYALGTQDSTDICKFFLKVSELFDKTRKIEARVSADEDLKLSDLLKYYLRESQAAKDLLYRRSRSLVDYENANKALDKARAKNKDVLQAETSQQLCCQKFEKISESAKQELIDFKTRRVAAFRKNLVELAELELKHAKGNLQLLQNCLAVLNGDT
Method: as §1, §2

RPS6KA3 = molecular target: T24, RPS6KA3 (Homo sapiens, UniProt P51812)
T24 construct: endogenous in cells; host or cells: MDA-MB-231
Method: as §1, §2

MAMDC2 = molecular target: T25, MAMDC2 (Homo sapiens, UniProt Q7Z304)
T25 construct: endogenous in cells; host or cells: MDA-MB-231
Method: as §1, §2

RRAS2 = molecular target: T26, RRAS2 (Homo sapiens, UniProt P62070)
T26 construct: endogenous in cells; host or cells: MDA-MB-231
T26 sequence (P62070 whole entry): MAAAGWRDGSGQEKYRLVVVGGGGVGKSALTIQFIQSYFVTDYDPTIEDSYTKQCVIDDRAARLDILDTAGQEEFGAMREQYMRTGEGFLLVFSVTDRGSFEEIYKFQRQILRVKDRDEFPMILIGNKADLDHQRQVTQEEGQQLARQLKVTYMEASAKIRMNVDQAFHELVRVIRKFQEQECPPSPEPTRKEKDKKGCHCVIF
Method: as §1, §2

MLEC = molecular target: T27, MLEC (Homo sapiens, UniProt Q14165)
T27 construct: endogenous in cells; host or cells: MDA-MB-231
T27 sequence (Q14165 29-292): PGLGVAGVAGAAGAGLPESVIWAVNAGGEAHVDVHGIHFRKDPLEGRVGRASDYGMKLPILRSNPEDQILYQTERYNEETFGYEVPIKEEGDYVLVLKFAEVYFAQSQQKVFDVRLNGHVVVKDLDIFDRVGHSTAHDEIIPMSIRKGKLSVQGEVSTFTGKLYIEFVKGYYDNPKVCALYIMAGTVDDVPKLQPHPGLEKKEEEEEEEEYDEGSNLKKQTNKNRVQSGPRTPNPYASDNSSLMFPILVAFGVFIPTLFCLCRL
Method: as §1, §2

PIP4K2B = molecular target: T28, PIP4K2B (Homo sapiens, UniProt P78356)
T28 construct: endogenous in cells; host or cells: MDA-MB-231
Method: as §1, §2

NAPG = molecular target: T29, NAPG (Homo sapiens, UniProt Q99747)
T29 construct: endogenous in cells; host or cells: MDA-MB-231
T29 sequence (Q99747 whole entry): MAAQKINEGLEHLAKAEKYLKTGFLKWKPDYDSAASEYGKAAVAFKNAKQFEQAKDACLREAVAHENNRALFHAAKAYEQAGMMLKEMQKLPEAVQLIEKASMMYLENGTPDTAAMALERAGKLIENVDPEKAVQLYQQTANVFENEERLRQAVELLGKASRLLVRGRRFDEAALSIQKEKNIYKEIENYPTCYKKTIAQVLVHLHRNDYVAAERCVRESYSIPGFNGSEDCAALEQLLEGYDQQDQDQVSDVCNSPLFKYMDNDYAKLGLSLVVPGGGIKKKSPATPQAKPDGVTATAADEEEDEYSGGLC
Method: as §1, §2

METTL18 = molecular target: T30, METTL18 (Homo sapiens, UniProt O95568)
T30 construct: endogenous in cells; host or cells: MDA-MB-231
Method: as §1, §2

HNRNPA0 = molecular target: T31, HNRNPA0 (Homo sapiens, UniProt Q13151)
T31 construct: 148 targets unique to Compound 1 in MDA-MB-231 intact cells; endogenous in cells; host or cells: MDA-MB-231
T31 sequence (Q13151 whole entry): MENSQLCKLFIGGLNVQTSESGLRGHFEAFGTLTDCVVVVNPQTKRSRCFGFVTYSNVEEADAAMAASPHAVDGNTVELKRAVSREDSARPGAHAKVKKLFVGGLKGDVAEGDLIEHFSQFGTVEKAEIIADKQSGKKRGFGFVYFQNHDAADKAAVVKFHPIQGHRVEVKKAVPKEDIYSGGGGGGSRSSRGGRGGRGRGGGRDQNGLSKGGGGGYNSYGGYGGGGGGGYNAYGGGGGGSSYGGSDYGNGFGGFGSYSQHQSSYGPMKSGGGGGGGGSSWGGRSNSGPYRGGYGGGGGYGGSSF
Method: as §1, §2

LRRC59 = molecular target: T32, LRRC59 (Homo sapiens, UniProt Q96AG4)
T32 construct: endogenous in cells; host or cells: MDA-MB-231
Method: as §1, §2

CAVIN3 = molecular target: T33, CAVIN3 (Homo sapiens, UniProt Q969G5)
T33 construct: endogenous in cells; host or cells: MDA-MB-231
Method: as §1, §2

HSPA13 = molecular target: T34, HSPA13 (Homo sapiens, UniProt P48723)
T34 construct: endogenous in cells; host or cells: MDA-MB-231
T34 sequence (P48723 23-471): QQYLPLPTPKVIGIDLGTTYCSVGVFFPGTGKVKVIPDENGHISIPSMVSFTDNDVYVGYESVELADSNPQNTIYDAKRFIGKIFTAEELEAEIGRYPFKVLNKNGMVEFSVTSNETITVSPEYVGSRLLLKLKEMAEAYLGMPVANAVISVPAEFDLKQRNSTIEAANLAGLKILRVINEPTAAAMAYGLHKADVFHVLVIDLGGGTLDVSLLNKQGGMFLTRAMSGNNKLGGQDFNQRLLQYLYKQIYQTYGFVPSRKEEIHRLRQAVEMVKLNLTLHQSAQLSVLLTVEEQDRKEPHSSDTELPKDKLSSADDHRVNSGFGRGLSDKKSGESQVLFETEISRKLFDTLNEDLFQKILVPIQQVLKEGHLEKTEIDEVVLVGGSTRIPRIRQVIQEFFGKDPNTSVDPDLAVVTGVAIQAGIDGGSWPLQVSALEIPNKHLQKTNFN
Method: as §1, §2

DNAJC13 = molecular target: T35, DNAJC13 (Homo sapiens, UniProt O75165)
T35 construct: 148 targets unique to Compound 1 in MDA-MB-231 intact cells; endogenous in cells; host or cells: MDA-MB-231
Method: as §1, §2

Measured: Group (CETSA-MS thermal shift)

CN1CCN(c2ccc(Nc3ncc4cc(C#N)c(=O)n(C5CCCC5)c4n3)cc2)CC1 [Compound 1, 8-cyclopentyl-2-((4-(4-methylpiperazin-1-yl)phenyl)amino)-7-oxo-7,8-dihydropyrido[2,3-d]pyrimidine-6-carbonitrile]
Destabilization: ANP32B | BOD1L1 | AIFM2 | AP2S1 | YES1 | SHCBP1 | MARK2 | MAP2K5 | SNX30 | SNX6 | RPS6KA3
Stabilization: all other assays above
